Tests used:
BRM = BRM (Homo sapiens, UniProt P51531); experiment: ATPase catalytic activity of BRM (ADP-Glo in vitro biochemical assay); settings: for BRM Max % Inhibition: Table 6
BRG-1 = BRG-1 (Homo sapiens, UniProt P51532); experiment: ATPase catalytic activity of BRG-1 (ADP-Glo in vitro biochemical assay); settings: for BRG1 Max % Inhibition: Table 6
BRG-1, sequence (P51532 whole entry): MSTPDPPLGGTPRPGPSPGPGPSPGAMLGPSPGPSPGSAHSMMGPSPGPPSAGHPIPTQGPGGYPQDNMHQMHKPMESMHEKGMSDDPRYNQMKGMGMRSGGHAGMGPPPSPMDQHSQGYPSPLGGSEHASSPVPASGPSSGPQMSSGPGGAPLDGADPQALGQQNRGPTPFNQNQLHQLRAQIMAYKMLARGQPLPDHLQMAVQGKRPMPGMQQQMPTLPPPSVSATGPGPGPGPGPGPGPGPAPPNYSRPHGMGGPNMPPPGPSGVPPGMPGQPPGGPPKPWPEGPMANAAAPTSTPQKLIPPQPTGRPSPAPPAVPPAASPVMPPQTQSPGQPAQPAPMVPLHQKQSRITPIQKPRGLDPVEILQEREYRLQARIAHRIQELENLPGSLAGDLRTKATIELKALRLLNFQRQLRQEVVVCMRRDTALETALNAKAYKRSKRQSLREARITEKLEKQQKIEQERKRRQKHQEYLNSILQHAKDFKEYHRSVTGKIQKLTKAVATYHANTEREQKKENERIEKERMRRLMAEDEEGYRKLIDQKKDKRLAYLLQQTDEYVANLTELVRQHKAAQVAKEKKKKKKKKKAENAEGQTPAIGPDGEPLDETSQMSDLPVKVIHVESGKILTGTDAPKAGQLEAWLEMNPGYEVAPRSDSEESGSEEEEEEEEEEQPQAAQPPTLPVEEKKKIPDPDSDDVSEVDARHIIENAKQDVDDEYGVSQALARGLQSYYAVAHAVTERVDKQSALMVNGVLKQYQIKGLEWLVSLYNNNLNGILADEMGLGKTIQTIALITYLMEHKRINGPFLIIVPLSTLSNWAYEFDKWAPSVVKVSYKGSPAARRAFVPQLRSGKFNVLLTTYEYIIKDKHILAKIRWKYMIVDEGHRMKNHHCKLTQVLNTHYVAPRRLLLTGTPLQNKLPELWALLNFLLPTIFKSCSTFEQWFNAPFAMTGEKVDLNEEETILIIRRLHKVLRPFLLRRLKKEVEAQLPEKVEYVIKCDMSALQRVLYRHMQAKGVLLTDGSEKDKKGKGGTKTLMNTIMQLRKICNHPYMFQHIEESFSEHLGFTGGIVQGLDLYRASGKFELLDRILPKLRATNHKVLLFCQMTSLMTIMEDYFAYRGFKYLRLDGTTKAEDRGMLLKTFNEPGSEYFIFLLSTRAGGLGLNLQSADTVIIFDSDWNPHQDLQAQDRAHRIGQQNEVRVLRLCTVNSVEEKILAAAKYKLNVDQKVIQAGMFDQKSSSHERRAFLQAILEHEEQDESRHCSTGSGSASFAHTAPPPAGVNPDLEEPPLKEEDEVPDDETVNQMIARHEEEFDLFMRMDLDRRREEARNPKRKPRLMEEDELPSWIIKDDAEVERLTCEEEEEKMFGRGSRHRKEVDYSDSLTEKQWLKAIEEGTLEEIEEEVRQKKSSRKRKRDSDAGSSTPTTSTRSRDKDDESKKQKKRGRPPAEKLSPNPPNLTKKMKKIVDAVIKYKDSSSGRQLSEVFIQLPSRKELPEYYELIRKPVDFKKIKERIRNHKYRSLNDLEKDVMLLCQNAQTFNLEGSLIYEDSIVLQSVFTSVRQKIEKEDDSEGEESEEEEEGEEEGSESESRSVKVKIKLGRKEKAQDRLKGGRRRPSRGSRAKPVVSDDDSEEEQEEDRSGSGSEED

BRM, sequence (P51531 whole entry): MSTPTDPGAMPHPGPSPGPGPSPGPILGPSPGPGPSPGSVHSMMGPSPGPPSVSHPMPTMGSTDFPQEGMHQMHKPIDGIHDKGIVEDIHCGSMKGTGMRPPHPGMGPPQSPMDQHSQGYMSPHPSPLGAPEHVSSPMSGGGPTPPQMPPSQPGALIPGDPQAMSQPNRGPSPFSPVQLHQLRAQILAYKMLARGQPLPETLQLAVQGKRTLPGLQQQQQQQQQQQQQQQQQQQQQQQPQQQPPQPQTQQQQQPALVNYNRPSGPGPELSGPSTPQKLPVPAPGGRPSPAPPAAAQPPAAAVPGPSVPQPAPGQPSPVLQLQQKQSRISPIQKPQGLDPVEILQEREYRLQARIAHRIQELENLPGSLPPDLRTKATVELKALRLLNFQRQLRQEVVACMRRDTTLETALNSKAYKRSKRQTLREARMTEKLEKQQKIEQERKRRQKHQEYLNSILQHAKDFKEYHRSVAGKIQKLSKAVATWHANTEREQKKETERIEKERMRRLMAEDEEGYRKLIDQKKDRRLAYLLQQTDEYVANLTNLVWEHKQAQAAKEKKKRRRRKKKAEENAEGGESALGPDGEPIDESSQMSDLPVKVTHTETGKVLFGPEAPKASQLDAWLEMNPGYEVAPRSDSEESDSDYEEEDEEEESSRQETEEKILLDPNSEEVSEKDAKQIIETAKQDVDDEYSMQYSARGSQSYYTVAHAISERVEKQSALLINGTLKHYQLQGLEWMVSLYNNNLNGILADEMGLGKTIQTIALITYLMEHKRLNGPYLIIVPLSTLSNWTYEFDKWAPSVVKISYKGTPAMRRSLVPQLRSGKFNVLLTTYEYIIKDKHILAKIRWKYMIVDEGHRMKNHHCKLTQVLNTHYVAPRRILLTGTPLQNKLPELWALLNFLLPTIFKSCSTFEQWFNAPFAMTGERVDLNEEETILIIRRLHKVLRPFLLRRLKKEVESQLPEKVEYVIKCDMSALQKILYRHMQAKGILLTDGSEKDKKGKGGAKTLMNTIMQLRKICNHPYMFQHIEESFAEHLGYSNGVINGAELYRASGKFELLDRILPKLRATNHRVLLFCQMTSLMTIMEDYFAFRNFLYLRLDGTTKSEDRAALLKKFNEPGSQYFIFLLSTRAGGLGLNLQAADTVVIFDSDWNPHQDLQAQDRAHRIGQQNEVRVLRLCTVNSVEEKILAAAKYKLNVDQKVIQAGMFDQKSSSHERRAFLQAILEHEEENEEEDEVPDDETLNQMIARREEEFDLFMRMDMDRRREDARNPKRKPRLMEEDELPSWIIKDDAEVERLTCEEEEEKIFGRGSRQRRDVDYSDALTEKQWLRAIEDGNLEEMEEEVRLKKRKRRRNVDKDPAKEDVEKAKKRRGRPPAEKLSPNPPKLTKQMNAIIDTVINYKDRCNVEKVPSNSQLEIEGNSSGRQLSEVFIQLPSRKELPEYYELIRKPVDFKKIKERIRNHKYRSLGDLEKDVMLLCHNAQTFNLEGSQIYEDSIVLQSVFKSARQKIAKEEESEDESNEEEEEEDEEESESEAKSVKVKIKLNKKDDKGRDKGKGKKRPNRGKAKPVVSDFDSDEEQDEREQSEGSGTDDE

Row | Compound | IC50 (BRM) | BRM Max % Inhibition (BRM) | IC50 (BRG-1) | BRG1 Max % Inhibition (BRG-1)
1 | Nc1ccc(C(=O)NCC(=O)Nc2nc(-c3cccc(-c4ccnc(N5CCNCC5)c4)c3)cs2)cc1 [Compound 159, 4-amino-N-(2-oxo-2-((4-(3-(2-(piperazin-1-yl)pyridin-4-yl)phenyl)thiazol-2-yl)amino)ethyl)benzamide] | 0.1 to 1 µM | >90% | 0.1 to 1 µM | >95%
2 | NCCNc1cc(-c2cccc(-c3csc(NC(=O)CNC(=O)c4ccc(N)cc4)n3)c2)ccn1 [Compound 160, 4-amino-N-(2-((4-(3-(2-((2-aminoethyl)amino)pyridin-4-yl)phenyl)thiazol-2-yl)amino)-2-oxoethyl)benzamide] | 0.1 to 1 µM | >95% | 0.1 to 1 µM | >95%,
3 | Nc1ccc(C(=O)NCC(=O)Nc2nc(-c3cccc(-c4ccn(C5CCOCC5)n4)c3)cs2)cc1 [Compound 162, 4-amino-N-(2-oxo-2-((4-(3-(1-(tetrahydro-2H-pyran-4-yl)-1H-pyrazol-3-yl)phenyl)thiazol-2-yl)amino)ethyl)benzamide] | < 0.1 µM | >95% | < 0.1 µM | >95%
4 | NCCOc1cc(-c2cccc(-c3csc(NC(=O)CNC(=O)c4ccc(N)cc4)n3)c2)ccn1 [Compound 163, 4-amino-N-(2-((4-(3-(2-(2-aminoethoxy)pyridin-4-yl)phenyl)thiazol-2-yl)amino)-2-oxoethyl)benzamide] | < 0.1 µM | >95% | 0.1 to 1 µM | >95%
5 | NCc1cc(-c2cccc(-c3csc(NC(=O)CNC(=O)c4ccc(N)cc4)n3)c2)ccn1 [Compound 164, 4-amino-N-(2-((4-(3-(2-(aminomethyl)pyridin-4-yl)phenyl)thiazol-2-yl)amino)-2-oxoethyl)benzamide] | < 0.1 µM | >95% | < 0.1 µM | >95%
6 | Nc1ccc(C(=O)NCC(=O)Nc2nc(-c3cccc(-c4ccnc(CO)c4)c3)cs2)cc1 [Compound 165, 4-amino-N-(2-((4-(3-(2-(hydroxymethyl)pyridin-4-yl)phenyl)thiazol-2-yl)amino)-2-oxoethyl)benzamide] | < 0.1 µM | >95% | < 0.1 µM | >95%
7 | NCCn1ccc(-c2cccc(-c3csc(NC(=O)CNC(=O)c4ccc(N)cc4)n3)c2)cc1=O [Compound 166, 4-amino-N-(2-((4-(3-(1-(2-aminoethyl)-2-oxo-1,2-dihydropyridin-4-yl)phenyl)thiazol-2-yl)amino)-2-oxoethyl)benzamide] | 0.1 to 1 µM | >95% | 0.1 to 1 µM | >95%
8 | CN(C)CCn1ccc2ccc(-c3csc(NC(=O)CNC(=O)c4ccc(N)cc4)n3)cc2c1=O [Compound 167, 4-amino-N-(2-((4-(2-(2-(dimethylamino)ethyl)-1-oxo-1,2-dihydroisoquinolin-7-yl)thiazol-2-yl)amino)-2-oxoethyl)benzamide] | 0.1 to 1 µM | >95% | 0.1 to 1 µM | >95%
9 | CN(C)Cc1cc(-c2cccc(-c3csc(NC(=O)CNC(=O)c4ccc(N)cc4)n3)c2)ccn1 [Compound 168, 4-amino-N-(2-((4-(3-(2-((dimethylamino)methyl)pyridin-4-yl)phenyl)thiazol-2-yl)amino)-2-oxoethyl)benzamide] | < 0.1 µM | >95% | < 0.1 µM | >95%
10 | NCC1CCC(c2cccc(-c3csc(NC(=O)CNC(=O)c4ccc(N)cc4)n3)c2)CC1 (stereo not shown) [Compound 169, 4-amino-N-(2-((4-(3-(4-(aminomethyl)cyclohexyl)phenyl)thiazol-2-yl)amino)-2-oxoethyl)benzamide] | 0.1 to 1 µM | >95% | 0.1 to 1 µM | >95%
11 | CN(C)CCn1cc(-c2cccc(-c3csc(NC(=O)CNC(=O)c4ccc(N)cc4)n3)c2)ccc1=O [Compound 170, 4-amino-N-(2-((4-(3-(1-(2-(dimethylamino)ethyl)-6-oxo-1,6-dihydropyridin-3-yl)phenyl)thiazol-2-yl)amino)-2-oxoethyl)benzamide] | 0.1 to 1 µM | >95% | 0.1 to 1 µM | >95%
12 | NCCn1ccc2ccc(-c3csc(NC(=O)CNC(=O)c4ccc(N)cc4)n3)cc2c1=O [Compound 171, 4-amino-N-(2-((4-(2-(2-aminoethyl)-1-oxo-1,2-dihydroisoquinolin-7-yl)thiazol-2-yl)amino)-2-oxoethyl)benzamide] | 0.1 to 1 µM | >95% | 0.1 to 1 µM | >95%
13 | Nc1ccc(C(=O)N[C@@H](CO)C(=O)Nc2nc(-c3cccc(-c4ccncc4)c3)cs2)cc1 [Compound 172, (S)-4-amino-N-(3-hydroxy-1-oxo-1-((4-(3-(pyridin-4-yl)phenyl)thiazol-2-yl)amino)propan-2-yl)benzamide] | 0.1 to 1 µM | >95% | 0.1 to 1 µM | >90%
14 | Nc1ccc(C(=O)NCC(=O)Nc2nc(C3CCCN(c4cccnc4)C3)cs2)cc1 (stereo not shown) [Compound 173, 4-amino-N-(2-oxo-2-((4-(1-(pyridin-3-yl)piperidin-3-yl)thiazol-2-yl)amino)ethyl)benzamide] | 0.1 to 1 µM | >90% | 0.1 to 1 µM | >90%
15 | NC[C@H]1CC[C@H](c2cccc(-c3csc(NC(=O)CNC(=O)c4ccc(N)cc4)n3)c2)CC1 [Compound 174, 4-amino-N-(2-((4-(3-((1r,4r)-4-(aminomethyl)cyclohexyl)phenyl)thiazol-2-yl)amino)-2-oxoethyl)benzamide] | 0.1 to 1 µM | >80% | 0.1 to 1 µM | >80%
16 | NC[C@H]1CC[C@@H](c2cccc(-c3csc(NC(=O)CNC(=O)c4ccc(N)cc4)n3)c2)CC1 [Compound 175, 4-amino-N-(2-((4-(3-((1s,4s)-4-(aminomethyl)cyclohexyl)phenyl)thiazol-2-yl)amino)-2-oxoethyl)benzamide] | 0.1 to 1 µM | >90% | 0.1 to 1 µM | >80%
17 | Nc1ccc(C(=O)NCC(=O)Nc2nc(-c3cccc(-c4cnn(CC(=O)O)c4)c3)cs2)cc1 [Compound 176, 2-(4-(3-(2-(2-(4-aminobenzamido)acetamido)thiazol-4-yl)phenyl)-1H-pyrazol-1-yl)acetic acid] | 0.1 to 1 µM | >90% | 0.1 to 1 µM | >80%
18 | COC(=O)Cc1cc(-c2cccc(-c3csc(NC(=O)CNC(=O)c4ccc(N)cc4)n3)c2)ccn1 [Compound 177, methyl 2-(4-(3-(2-(2-(4-aminobenzamido)acetamido)thiazol-4-yl)phenyl)pyridin-2-yl)acetate] | < 0.1 µM | >95% | < 0.1 µM | >95%
19 | COCC[C@H](NC(=O)c1ccc(N)cc1)C(=O)Nc1nc(-c2cccc(-c3ccncc3)c2)cs1 [Compound 178, (S)-4-amino-N-(4-methoxy-1-oxo-1-((4-(3-(pyridin-4-yl)phenyl)thiazol-2-yl)amino)butan-2-yl)benzamide] | < 0.1 µM | >95% | < 0.1 µM | >95%

Source: patent US11497752B2, “Compounds and uses thereof” (Foghorn Therapeutics Inc., priority 2018, dated 2022)
